These results are taken from patent publication US11813306B2, “Cyclic tetramer compounds as proprotein convertase subtilisin/kexin type 9 (PCSK9) inhibitors for the treatment of metabolic disorders” (NOVARTIS AG, priority 2018, dated 2023).

The target of the assay is human PCSK9 (Homo sapiens, UniProt Q8NBP7). Kind of assay: PCSK9 ligand binding assay (TR-FRET): interference with binding of human PCSK9 to human LDLR. Particulars: for IC50: Human PCSK9 Alexa Fluor 647 / Human LDLR extracellular domain-Europium Kryptate; for Max % inhibition: efficacy (Amax), 100% = 1 uM unlabeled human PCSK9, 0% = DMSO. A digest of the protocol:
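Read-out was TR-FRET ratio (665 nm over 615 nm, 330 nm excitation) between Alexa Fluor 647-human PCSK9 (16 nM added) and Europium Kryptate-human LDLR ectodomain (4 nM added). Compound and PCSK9 were mixed 30 min before LDLR, then incubated 2 h. Inhibition was normalised to DMSO and unlabelled-PCSK9 controls, giving IC50 and Amax.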
On the technique in general: In TR-FRET formats the signal depends on donor and acceptor labels being close together.

Sequence of human PCSK9 (Q8NBP7 153-692): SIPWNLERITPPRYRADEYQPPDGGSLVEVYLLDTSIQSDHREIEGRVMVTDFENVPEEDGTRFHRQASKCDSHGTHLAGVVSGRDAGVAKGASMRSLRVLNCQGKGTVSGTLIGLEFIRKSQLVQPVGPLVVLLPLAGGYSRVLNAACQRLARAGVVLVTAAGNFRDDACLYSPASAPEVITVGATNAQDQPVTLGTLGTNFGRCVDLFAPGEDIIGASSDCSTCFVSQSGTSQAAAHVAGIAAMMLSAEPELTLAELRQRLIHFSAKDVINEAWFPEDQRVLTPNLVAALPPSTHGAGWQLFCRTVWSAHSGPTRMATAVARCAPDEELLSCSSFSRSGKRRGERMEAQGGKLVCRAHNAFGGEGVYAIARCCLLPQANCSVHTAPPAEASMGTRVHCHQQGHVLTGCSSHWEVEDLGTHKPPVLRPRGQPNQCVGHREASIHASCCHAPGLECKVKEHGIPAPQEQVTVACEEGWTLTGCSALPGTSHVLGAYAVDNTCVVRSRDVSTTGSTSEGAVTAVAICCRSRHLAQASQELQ
Sequence of human PCSK9 (Q8NBP7 31-152 partner limits assumed): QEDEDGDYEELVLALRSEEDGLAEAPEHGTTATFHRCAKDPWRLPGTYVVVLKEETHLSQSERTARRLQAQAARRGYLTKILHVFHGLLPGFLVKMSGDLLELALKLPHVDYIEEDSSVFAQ

For the compound `C[C@H]1C[C@H]([C@@H]2CC(=O)N(Cc3ccc(Cl)cc3Oc3ccc(-c4cnc(CN5CCCC5)n4C)cc3)[C@@H](C)C(=O)N[C@@H](CO)C(=O)N(C)[C@H](Cc3ccc(Cl)cc3)CN(C)C2=O)c2ccccc21.Cl` [Compound 93, (2S, 5S, 8R, 12S)-1-(4-chloro-2-(4-(1-methyl-2-(pyrrolidin-1-ylmethyl)-1H-imidazol-5-yl)phenoxy)benzyl)-8-(4-chlorobenzyl)-5-(hydroxymethyl)-2,7,10-trimethyl-12-((1R, 3S)-3-methyl-2,3-dihydro-1H-inden-1-yl)-1,4,7,10-tetraazacyclotetradecane-3,6,11,14-tetraone], the half-inhibitory concentration (IC50) came out at 1.4 nM and the Max % inhibition worked out at 103.0%.

`COC[C@@H]1NC(=O)[C@H](C)N(Cc2ccc(Cl)cc2Oc2ccc(-c3cnc(CN(C)C)n3C)nc2)C(=O)C[C@@H](Cc2ccccn2)C(=O)N2CCC[C@@](Cc3ccc(Cl)cc3)(C2)N(C)C1=O` [Compound 94, (3R,7S,10S,13R)-6-(4-Chloro-2-((6-(2-((dimethylamino)methyl)-1-methyl-1H-imidazol-5-yl)pyridin-3-yl)oxy)benzyl)-13-(4-chlorobenzyl)-10-(methoxymethyl)-7,12-dimethyl-3-(pyridin-2-ylmethyl)-1,6,9,12-tetraazabicyclo[11.3.1]heptadecane-2,5,8,11-tetraone]: the IC50 came to 0.978 nM and the Max % inhibition was 107.7%.

For the compound `COC[C@@H]1NC(=O)[C@H](C)N(Cc2ccc(Cl)cc2Oc2ccc(-c3cnc(CN(C)C)n3C)cc2)C(=O)C[C@@H]([C@@H]2CCc3ccccc32)C(=O)N2CCC[C@@](Cc3ccc(Cl)cc3)(C2)NC1=O.Cl` [Compound 95, (3S, 7S, 10S, 13R)-6-(4-chloro-2-(4-(2-((dimethylamino)methyl)-1-methyl-1H-imidazol-5-yl)phenoxy)benzyl)-13-(4-chlorobenzyl)-3-((S)-2,3-dihydro-1H-inden-1-yl)-10-(methoxymethyl)-7-methyl-1,6,9,12-tetraazabicyclo[11.3.1]heptadecane-2,5,8,11-tetraone], the 50% inhibitory concentration (IC50) was found to be 1.88 nM and the Max % inhibition was determined as 102.5%.

Consider `C[C@@H](O)[C@@H]1NC(=O)[C@H](C)N(Cc2ccc(Cl)cc2Oc2ccc(-c3cnc(CN(C)C)n3C)cc2)C(=O)C[C@@H](CC(F)(F)F)C(=O)N2CCC[C@@](Cc3ccc(Cl)cc3)(C2)NC1=O` [Compound 97, (3S, 7S, 10S, 13R)-6-(4-chloro-2-(4-(2-((dimethylamino)methyl)-1-methyl-1H-imidazol-5-yl)phenoxy)benzyl)-13-(4-chlorobenzyl)-10-((R)-1-hydroxyethyl)-7-methyl-3-(2,2,2-trifluoroethyl)-1,6,9,12-tetraazabicyclo[11.3.1]heptadecane-2,5,8,1-tetraone], for which the half-inhibitory concentration (IC50) is 2.08 nM and the Max % inhibition turned out to be 91.2%.

As for `C[C@H]1C(=O)N[C@@H](CO)C(=O)N[C@@]2(Cc3ccc(Cl)cc3)CCCN(C2)C(=O)[C@H](Cc2ccccc2)CC(=O)N1Cc1c(Cl)cc(Cl)cc1Oc1ccc(-c2cnc(CN(C)C)n2C)cc1` [Compound 98, (3R, 7S, 10S, 13R)-3-benzyl-13-(4-chlorobenzyl)-6-(2,4-dichloro-6-(4-(2-((dimethylamino)methyl)-1-methyl-1H-imidazol-5-yl)phenoxy)benzyl)-10-(hydroxymethyl)-7-methyl-1,6,9,12-tetraazabicyclo+11.3.111-tetraone], the IC50 is 2.41 nM and the Max % inhibition came out at 108.6%.

Turning to `C[C@@H]1CC(=O)N(Cc2c(F)cc(Cl)cc2Oc2ccc(-c3cnc(CN(C)C)n3C)cc2)[C@@H](C)C(=O)N[C@@H](CO)C(=O)N(C)[C@@]2(Cc3ccc(Cl)cc3)CCCN(C2)C1=O` [Compound 99, (3R, 7S, 10S, 13R)-6-(4-chloro-2-(4-(2-((dimethylamino)methyl)-1-methyl-1H-imidazol-5-yl)phenoxy)-6-fluorobenzyl)-13-(4-chlorobenzyl)-10-(hydroxymethyl)-3,7,12-trimethyl-1,6,9,12-tetraazabicyclo+11.3.1+heptadecane-2,5,8,11-tetraone], the half-maximal inhibitory concentration (IC50) is 2.86 nM and the Max % inhibition came out at 116.6%.

As usually defined, the IC50 is the concentration that gives 50% inhibition. A high value points to weaker potency.
